Data as given in article PMC3446250 (2012).

Target: T1, GLIC (Gloeobacter violaceus, UniProt Q7NDN8, N194C)
T1 sequence (Q7NDN8 44-359 N194C): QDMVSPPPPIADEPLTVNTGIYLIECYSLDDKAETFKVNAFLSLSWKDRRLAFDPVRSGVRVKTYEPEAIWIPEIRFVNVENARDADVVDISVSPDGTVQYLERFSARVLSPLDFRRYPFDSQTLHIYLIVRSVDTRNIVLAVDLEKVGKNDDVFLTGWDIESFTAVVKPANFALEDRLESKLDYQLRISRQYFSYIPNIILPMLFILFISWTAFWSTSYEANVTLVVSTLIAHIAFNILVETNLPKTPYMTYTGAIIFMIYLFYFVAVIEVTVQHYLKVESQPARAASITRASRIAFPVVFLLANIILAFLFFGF
Test: two-electrode voltage clamp in Xenopus oocytes at EC20
Type: cell-based

Structure (SMILES): CNC1(c2ccccc2Cl)CCCCC1=O (stereo not shown) [ketamine]
- IC50: 110 µM
